Laboratory results taken from ChEMBL document CHEMBL3039007, “Structure-based identification of OATP1B1/3 inhibitors” (Mol Pharmacol, 2013).

Assays:
[1] = molecular target: T1, Solute carrier organic anion transporter family member 1B1 (Homo sapiens, UniProt Q9Y6L6); settings: chinese hamster, cho, 10 µM
T1 sequence (Q9Y6L6 whole entry): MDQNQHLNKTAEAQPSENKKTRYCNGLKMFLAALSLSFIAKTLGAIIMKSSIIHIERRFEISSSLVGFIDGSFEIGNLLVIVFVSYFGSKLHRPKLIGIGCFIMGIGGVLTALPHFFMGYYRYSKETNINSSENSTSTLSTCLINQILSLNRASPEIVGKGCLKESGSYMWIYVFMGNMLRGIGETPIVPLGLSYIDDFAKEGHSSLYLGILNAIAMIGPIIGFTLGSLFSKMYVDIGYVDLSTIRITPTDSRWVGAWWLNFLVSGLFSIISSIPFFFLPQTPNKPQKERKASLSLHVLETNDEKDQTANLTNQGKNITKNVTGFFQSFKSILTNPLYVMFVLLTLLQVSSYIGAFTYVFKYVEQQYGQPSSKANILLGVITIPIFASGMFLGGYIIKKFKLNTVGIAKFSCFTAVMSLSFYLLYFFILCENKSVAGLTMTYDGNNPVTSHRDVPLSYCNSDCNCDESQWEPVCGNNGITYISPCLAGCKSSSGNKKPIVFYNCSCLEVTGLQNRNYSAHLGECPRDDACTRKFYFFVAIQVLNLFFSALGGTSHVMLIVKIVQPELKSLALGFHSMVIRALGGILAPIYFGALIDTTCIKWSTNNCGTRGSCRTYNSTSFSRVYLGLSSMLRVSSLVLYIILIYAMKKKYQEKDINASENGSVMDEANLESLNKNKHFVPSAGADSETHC

[2] = molecular target: T2, Solute carrier organic anion transporter family member 1B3 (Homo sapiens, UniProt Q9NPD5); settings: chinese hamster, cho, 10 µM
T2 sequence (Q9NPD5 whole entry): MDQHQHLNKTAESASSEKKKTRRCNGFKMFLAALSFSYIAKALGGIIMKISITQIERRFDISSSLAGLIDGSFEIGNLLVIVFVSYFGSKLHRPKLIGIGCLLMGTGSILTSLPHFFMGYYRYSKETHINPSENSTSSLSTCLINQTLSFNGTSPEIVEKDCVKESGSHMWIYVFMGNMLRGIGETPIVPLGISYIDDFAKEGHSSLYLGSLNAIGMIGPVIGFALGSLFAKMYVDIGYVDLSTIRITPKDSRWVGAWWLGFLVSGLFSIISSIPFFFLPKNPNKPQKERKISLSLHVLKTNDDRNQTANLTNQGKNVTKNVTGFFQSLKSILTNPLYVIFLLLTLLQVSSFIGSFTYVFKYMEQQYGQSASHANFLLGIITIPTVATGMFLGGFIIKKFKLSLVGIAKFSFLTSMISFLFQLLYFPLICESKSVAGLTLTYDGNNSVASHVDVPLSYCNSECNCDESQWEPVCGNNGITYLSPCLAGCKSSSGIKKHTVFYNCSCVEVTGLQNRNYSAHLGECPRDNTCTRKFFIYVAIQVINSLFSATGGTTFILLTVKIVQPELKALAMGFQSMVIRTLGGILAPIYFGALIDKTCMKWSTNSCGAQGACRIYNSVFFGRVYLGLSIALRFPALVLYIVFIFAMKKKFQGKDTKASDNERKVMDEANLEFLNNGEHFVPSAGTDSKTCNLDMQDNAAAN

Row | SMILES | residual activity [1] [%] | residual activity [2] [%]
1 | Clc1ccc(COC(Cn2ccnc2)c2ccc(Cl)cc2Cl)c(Cl)c1.O=[N+]([O-])O (stereo not given) [MICONAZOLE NITRATE] | 124.1 | 119.9
2 | COc1ccc(OC)c(C(O)CNC(=O)CN)c1.Cl (stereo not given) [MIDODRINE HYDROCHLORIDE] | 101.7 | 88.99
3 | OCCN1C[C@H](O)[C@@H](O)[C@H](O)[C@H]1CO [MIGLITOL] | 99.55 | 80.3
4 | CCCCCCCCCCCCCCCCOP(=O)([O-])OCC[N+](C)(C)C [MILTEFOSINE] | 89.28 | 93.25
5 | CN(C)c1ccc(O)c2c1C[C@H]1C[C@H]3[C@H](N(C)C)C(O)=C(C(N)=O)C(=O)[C@@]3(O)C(O)=C1C2=O.Cl [MINOCYCLINE HYDROCHLORIDE] | 100.7 | 96.34
6 | Nc1cc(N2CCCCC2)nc(N)[n+]1[O-] [MINOXIDIL] | 93.9 | 92.39
7 | Clc1ccc(C(c2ccccc2Cl)C(Cl)Cl)cc1 (stereo not given) [MITOTANE] | 107.6 | 98.27
8 | NC(=O)c1ncn([C@@H]2O[C@H](CO)[C@@H](O)[C@H]2O)c1O [MIZORIBINE] | 113.4 | 100.4
9 | NC(=O)C[S+]([O-])C(c1ccccc1)c1ccccc1 (stereo not given) [MODAFINIL] | 113.7 | 95.61
10 | CCOC(=O)[N-]c1cn(N2CCOCC2)n[o+]1 [MOLSIDOMINE] | 70.9 | 97.14
11 | C[C@@H]1C[C@H]2[C@@H]3CCC4=CC(=O)C=C[C@]4(C)[C@@]3(Cl)[C@@H](O)C[C@]2(C)[C@@]1(OC(=O)c1ccco1)C(=O)CCl [MOMETASONE FUROATE] | 34.01 | 25.64
12 | CC[C@@]1([C@H]2O[C@H]([C@H]3O[C@@](O)(CO)[C@H](C)C[C@@H]3C)C[C@H]2C)CC[C@H]([C@@]2(C)CC[C@]3(C[C@H](O)[C@@H](C)[C@@H]([C@H](C)[C@H](OC)[C@@H](C)C(=O)[O-])O3)O2)O1.[Na+] [MONENSIN SODIUM] | 78.11 | 87
13 | C[C@H]1C(=O)O[C@@H]2CCN3CC=C(COC(=O)[C@](C)(O)[C@]1(C)O)[C@H]23 [MONOCROTALINE] | 100.7 | 94.85
14 | Cc1ccsc1/C=C/C1=NCCCN1C.O=C(O)CC(O)(CC(=O)O)C(=O)O [MORANTEL CITRATE] | 115.3 | 103.6
15 | O=c1c(O)c(-c2ccc(O)cc2O)oc2cc(O)cc(O)c12 [MORIN] | 24.17 | 45.37
16 | CO[C@@]1(NC(=O)C(C(=O)[O-])c2ccc(O)cc2)C(=O)N2C(C(=O)[O-])=C(CSc3nnnn3C)CO[C@@H]21.[Na+].[Na+] (stereo not given in full) [MOXALACTAM DISODIUM] | 87.94 | 92.91
17 | COc1c(N2C[C@@H]3CCCN[C@@H]3C2)c(F)cc2c(=O)c(C(=O)O)cn(C3CC3)c12.Cl [MOXIFLOXACIN HYDROCHLORIDE] | 106 | 94.01
18 | O=C(O)[C@@H](O)[C@H](O)[C@H](O)[C@@H](O)C(=O)O [MUCIC ACID] | 109 | 98.98
19 | COc1ccc2c(c1)O[C@@H]1COc3cc(OC)c(OC)cc3[C@@H]1C2=O [MUNDOSERONE] | 118.1 | 110.7
20 | COc1c(-c2coc3cc4c(cc3c2=O)CC(OC(C)=O)C(C)(C)O4)ccc2c1C=CC(C)(C)O2 (stereo not given) [MUNDULONE ACETATE] | 71.78 | 87.47
21 | COc1c(-c2coc3cc4c(cc3c2=O)CC(O)C(C)(C)O4)ccc2c1C=CC(C)(C)O2 (stereo not given) [MUNDULONE] | 31.23 | 45.15
22 | CC1=CC2C(CC1=O)C(C)=CCC2C(C)C (stereo not given) [MUUROLLADIE-3-ONE] | 267.7 | 117.6
23 | COc1c(C)c2c(c(O)c1C/C=C(\C)CCC(=O)O)C(=O)OC2 [MYCOPHENOLIC ACID] | 106.8 | 100.1

Row | SMILES | residual activity [1] [%] | residual activity [2] [%]
24 | N=C(N)NC(=O)c1nc(Cl)c(N2CCCCCC2)nc1N [N,N-HEXAMETHYLENEAMILORIDE] | 122.5 | 162.9
25 | Cl.FC(F)(F)c1cccc(N2CCNCC2)c1 [N- (3-TRIFLUOROMETHYLPHENYL)PIPERAZINE HYDROCHLORIDE (TFMPP)] | 106.1 | 80.23
26 | CC(=O)N[C@@H]1[C@@H](O)[C@H](O)[C@@H](CO)O[C@H]1O [N-ACETYLGLUCOSAMINE] | 48.98 | 82.99
27 | CC(=O)N1CCCC1C(=O)O (stereo not given) [N-ACETYLPROLINE] | 88.69 | 109.9
28 | O[C@@H]1C[C@H]2CCC[C@@H](C1)N2Cc1ccccc1 [N-BENZYLTROPAN-4-OL] | 92.31 | 88.98
29 | CSCCC(NC=O)C(=O)NC(C)C(=O)O (stereo not given) [N-FORMYLMETHIONYLALANINE] | 100.9 | 108.8
30 | O=C(NCO)c1cccnc1 [N-HYDROXYMETHYLNICOTINAMIDE] | 121.9 | 92.24
31 | CN[C@H](CC(=O)O)C(=O)O [N-METHYL-D-ASPARTIC ACID (NMDA)] | 101.6 | 98.22
32 | COc1ccc2cc(CCC(C)=O)ccc2c1 [NABUMETONE] | 203 | 110.7
33 | NC(=O)c1ccc[n+]([C@@H]2O[C@H](COP(=O)([O-])OP(=O)(O)OC[C@H]3O[C@@H](n4cnc5c(N)ncnc54)[C@H](O)[C@@H]3O)[C@@H](O)[C@H]2O)c1 [NADIDE] | 99.44 | 115.4
34 | CC(C)(C)NCC(O)COc1cccc2c1CC(O)C(O)C2 (stereo not given) [NADOLOL] | 76.36 | 86.47
35 | CCOc1ccc2ccccc2c1C(=O)N[C@@H]1C(=O)N2[C@@H]1SC(C)(C)[C@@H]2C(=O)[O-].O.[Na+] [NAFCILLIN SODIUM] | 74.51 | 114.4
36 | CCN(CC)CCOC(=O)C(Cc1cccc2ccccc12)CC1CCCO1.O=C(O)C(=O)O (stereo not given) [NAFRONYL OXALATE] | 74.24 | 116.5
37 | Cl.Oc1ccc2c3c1O[C@H]1[C@@H](O)CC[C@@]4(O)[C@@H](C2)N(CC2CCC2)CC[C@]314 [NALBUPHINE HYDROCHLORIDE] | 86.64 | 96.59
38 | COP(=O)(OC)OC(Br)C(Cl)(Cl)Br (stereo not given) [NALED] | 82.68 | 110
39 | CCn1cc(C(=O)O)c(=O)c2ccc(C)nc21 [NALIDIXIC ACID] | 63.37 | 81.71
40 | C=CCN1CC[C@]23c4c5ccc(O)c4O[C@H]2C(=O)CC[C@@]3(O)[C@H]1C5.Cl [NALOXONE HYDROCHLORIDE] | 111.5 | 113.7
41 | Cl.O=C1CC[C@@]2(O)[C@H]3Cc4ccc(O)c5c4[C@@]2(CCN3CC2CC2)[C@H]1O5 [NALTREXONE HYDROCHLORIDE] | 71.98 | 86.99
42 | Cl.c1ccc2c(CC3=NCCN3)cccc2c1 [NAPHAZOLINE HYDROCHLORIDE] | 100.7 | 95.85
43 | COc1ccc2cc([C@H](C)CO)ccc2c1 [NAPROXOL] | 241.9 | 102.8
44 | O=C1C[C@@H](c2ccc(O)cc2)Oc2cc(O)cc(O)c21 [NARINGENIN] | 96.26 | 95.55
45 | C[C@@H]1O[C@@H](O[C@H]2[C@H](Oc3cc(O)c4c(c3)O[C@H](c3ccc(O)cc3)CC4=O)O[C@H](CO)[C@@H](O)[C@@H]2O)[C@H](O)[C@H](O)[C@H]1O [NARINGIN] | 100.1 | 137.8
